Measured values reported in US20150158914A1, “PEPTIDES, CONSTRUCTS AND USES THEREFOR” (priority 2010, published 2015).
“Also recorded” adds a separate entry of the source. Read-outs that look alike come from different tables or passages of the source. Ends that are not written are not given here. * marks the point of attachment. FITC = O=C1OC2(c3ccc(O)cc3Oc3cc(O)ccc32)c2ccc(NC(=S)*)cc21; Biotin = O=C1N[C@H]2[C@H](CS[C@H]2CCCCC(=O)*)N1; Acp = not defined here

Experiments:
[1] = molecular target: mutated B-Raf (Homo sapiens, UniProt P15056, V600E); conditions: in vivo; cited from earlier work
[2] = test system: WM-266-4 melanoma cells; assay: Apoptosis by anti-B-raf antibody delivered with the carrier peptide (Annexin-V fluos); format: cell-based; conditions: 1 μg/ml, 3 h
Experimental: The carrier peptide-rabbit anti-B-raf antibody conjugate (1 μg/ml), the unconjugated carrier peptide and unconjugated anti-B-raf antibody (1 μg/ml) were added to WM-266-4 melanoma cells, and cell apoptosis was assessed after 3 h by addition of Annexin-V fluos, with visualization by fluorescence microscopy. Untreated cells were included as an additional control. Cell nuclei were stained with DAPI. The results were merged to illustrate the numbers of cells that underwent apoptosis compared with the total number of cells ie the proportion of cells that underwent apoptosis.

[3] = test system: X-protein; assay: Western blot of X-protein in transfected HepG2 cells treated with X-protein-degradation domain fusion peptides; format: cell-based, hepatitis B virus; conditions: HepG2 transfected with pCDNA3.1-HBX or pCDNA3-HBX Myc; 10 μM peptide at 3 h, 24 h and 48 h post transfection
Experimental: HepG2 cells were seeded into 6 well plates at 1×10^6 cells per well in MEM medium supplemented with 10% FCS, and cultured overnight at 37° and 5% CO2. No PSG antibiotic was added to the medium as it can interfere with transfection efficiency. The medium was then removed and replaced with MEM medium without 10% FCS. The amount of DNA used for transfection was 4 μg. Firstly, 4 μg of DNA was mixed with 250 μl of Opti-MEM medium, and then 4 μl of polymag transfection reagent was added. The mixture was incubated for 20 min and then added to the cells. The plate was placed onto a magnetic plate on a rotating platform for 20 min.
Cell-permeable X-protein-degradation domain fusion peptides were added at a concentration of 10 μM to the cells in MEM without 10% FCS and cells incubated for 45 h. […] An additional 10 μM of peptide was added after 3 h of incubation, and a further 10 μM of peptide was added after 21 h incubation. When the additional aliquots of peptide were added, the cells were washed in MEM without FCS, the peptides added, and the cells incubated for 3 h before changing the medium to MEM containing 10% FCS and PSG. The cells were lysed and analyzed by Western blot analysis for expression of the X-proteins.
Cells were washed with PBS, and detached from plates by incubation with trypsin diluted in PBS. Cells were washed with MEM containing FCS to inactivate trypsin, and pelleted by centrifugation at 175 g for 5 min. They were then resuspended in 1 ml of PBS, and a 10 μl sample was removed, stained with Trypan blue, and cell number counted with a haemocytometer. The cells were then pelleted at 4,000 g for 5 min and thrice washed in PBS. All traces of liquid were removed and the cells were ready for cell lysis. Complete Lysis Buffer was added to the cells at 20 μl per 1×10^6 cells. The cells were resuspended very well to aid lysis and then left on ice for 10 min. They were centrifuged at 15,000 g for 10 min, and the supernatant collected and saved. The nuclear precipitate was processed by adding 13 μl of lysis buffer, 2 μl of 2% SDS, 2 μl of Na deoxycholate, 2 μl of DNAse buffer and 1 μl of DNAse I. The sticky cell lysate was resuspended vigorously after each reagent was added then incubated at 37° for 10 min.
The two X-protein-ODD fusion peptides were tested for their ability to decrease the level of X-protein expression. HepG2 cells were transfected with 4 μg of either the X-protein plasmids pCDNA3.1-HBX and pCDNA3-HBX Myc, or 4 μg of the pCDNA3-GFP vector. The X-protein-ODD fusion peptides were repetitively added to the cells at 3 h, 24 h and 48 h post transfection. Control transfectants were not treated with peptide, but were otherwise cultured under the same conditions. Transfectants were subjected to Western blotting to determine whether the X-protein was expressed. […]

[4] = test system: C32 melanoma cells; conditions: C32, 10 μM, 3 h
Experimental: (§1) The melanoma cell lines WM-266-4 and C32 were seeded into 8-well chamber slides at 1×10^5 cells per well in full MEM media and incubated at 37° C. and 5% CO2 overnight. The next day the cells were washed thrice with serum-free MEM, resuspended in 500 μl of the same medium, and added to the wells. […] Annexin-V labelling solution was prepared by adding 20 μl of Annexin V labelling reagent and 10 μl of propidium iodide in 1 ml of incubation buffer. The cells were washed with incubation buffer, and 100 μl of Annexin-V labelling solution was added, followed by incubation for 15 min in the dark. The cells were washed with incubation buffer, fixed with 4% formaldehyde in PBS for 30 min, washed with PBS and slide chambers removed. A drop of Prolong Gold anti-fade reagent with DAPI was added to each sample, the slides dried overnight, and then examined by fluorescence microscopy.

[5] = test system: WM-266-4 melanoma cells; conditions: WM-266-4, 20 μM, 3 h
Experimental: as §1

[6] = test system: HepG2 cells; assay: Assay for cell permeability of X-protein peptides (fluorescence and confocal microscopy); format: cell-based, human; conditions: for uptake by HepG2 cells (cell permeability): FITC-labelled peptide 10 μM, 3 h, medium without FCS; for intracellular distribution (confocal slicing): FITC-labelled peptide, HepG2 cells
Experimental: The cells were then incubated overnight at 37° and 5% CO2, and then washed thrice with media without FCS. The X-protein peptide in 250 μl of appropriate media without FCS was added to the cells at a final concentration of 10 μM, and the slides incubated for 3 h at 37° C. and 5% CO2. The cells were washed with PBS, fixed with 4% formaldahyde in PBS for 30 min, and washed thrice with PBS. […] The slides were dried overnight in the dark, and examined by microscopy by using a Nikon E600 fluorescent microscope. Photos were taken using Nikon ACT-1 software. For further examination, slides were then examined by confocal microscopy using a Leica TCS-SP2 confocal microscope.

[7] = molecular target: T1, X-protein N-terminal peptide 1-50 (Hepatitis B virus genotype C subtype adr, UniProt Q81163, DEL44-44/P38S/S41A/S42F/V5L); assay: Peptide binding assay: FITC-peptides on peptide 1-50-coated plates; conditions: FITC-peptide at 10, 20, 40 μg/ml, 30 min
T1 construct: The parent peptide containing aa 1-50 conjugated N-terminally to a biotin tag; purchased; host or cells: chemical synthesis
Experimental: Qligomerization peptides were received in powdered form, and were weighed and diluted in a sterile 10% DMSO solution to make a 10 mg/ml stock solution. The wells of a Reactibind neutravidin-coated 96 well plate (Thermoscientific cat #15507) were thrice washed with 200 μl of plate washing buffer. Peptide 1-50, which contains a biotin tag, was diluted to 10 μg/ml in wash buffer and 100 μl of the solution was placed into each well being used. The plate was incubated at room temperature for 2 h, and the wells washed thrice with 200 μl of wash buffer. Truncated fluorescent variants of peptide 1-50 at 40 μg/ml, 20 μg/ml, and 10 μg/ml were added to the wells in triplicate, and the plates incubated at room temperature for 30 min. The wells were then washed thrice with 200 μl of wash buffer under low light conditions, and the plate read on a Biotek fluorescent plate reader at an excitation wavelength of 490 nm and an emission wavelength of 520 nm.
A ligand-binding assay was performed using streptavidin-coated plates in order to define the minimum peptide motif needed for dimerization of the X-protein. In this scenario the X-protein monomer serves as its own ligand. […] A series of short peptides from the region encoding aa 1-50 were synthesized. The parent peptide containing aa 1-50 conjugated N-terminally to a biotin tag was added to the streptavidin coated plates. […] Non-biotinylated peptides encoding aa 1-20, 16-35, 21-40 and 34-53 were added at 10, 20, and 40 μg/ml to the wells coated with peptide aa 1-50. The smaller peptides were each conjugated to a FITC tag for detection using a fluorescent plate reader. […] Binding performed with lesser concentrations of the peptides was not significant. Even smaller peptides encompassing that region 16-35 were made to determine whether the aa 16-35 was the minimum peptide motif needed for X-protein dimerization. These peptides synthesized, namely aa 16-26, 16-24, and 16-22 were analyzed using the same peptide binding assay. […] Thus of the peptides examined, the minimal peptide motif needed for dimerization of the X-protein is the […] peptide 16-35.

[8] = test system: TK-1 T cells adherent to MAdCAM-1; assay: Carriage of a foreign peptide into TK-1 cells; format: cell-based; conditions: 50 μM, 30 min, streptavidin-FITC detection
Experimental: Eight-well glass chamber slides were coated overnight at 4° C. with MAdCAM-1-Fc. They were blocked with FCS at RT for 2 h. TK-1 T cells were activated with 2 mM Mn2+/Ca2+ in HBSS buffer and added to MAdCAM-1 coated glass slides, followed by incubation for 15 min. Peptides […] (SEQ ID NO 15) and R9YDRREY (SEQ ID NO 14) were added at 50 μM followed by incubation for 30 min. The cells were fixed overnight in 4% PFA, permeabilised with PBS+0.1% Tween 20 for 15 min, blocked with 3% BSA in PBS for 1 h, and the presence of the peptides detected with FITC-Streptavidin (1:200 dilution in 3% BSA in PBS 1 h). Slides were mounted with Prolong gold with DAPI.
The X-protein cell-permeable peptide LCLRPVG (SEQ ID NO: 2) was fused to the hexapeptide YDRREY (SEQ ID NO 16) taken from the cytoplasmic domain of the human integrin β7 subunit. The peptides were separated by a glycine linker, and a biotin tag was added N-terminally. The fusion peptide was compared with the YDRREY (SEQ ID NO 16) peptide fused to an R9 (SEQ ID NO: 145) carrier peptide for its ability to enter TK-1 T cells adherent to MAdCAM-1.

[9] = listed as biotin-RRRRRRRRHKLVRSPAPCKFFTSAGGLNVTAPTPQQLQAFKNEVGVLRK

Sequence of mutated B-Raf (P15056 whole entry V600E): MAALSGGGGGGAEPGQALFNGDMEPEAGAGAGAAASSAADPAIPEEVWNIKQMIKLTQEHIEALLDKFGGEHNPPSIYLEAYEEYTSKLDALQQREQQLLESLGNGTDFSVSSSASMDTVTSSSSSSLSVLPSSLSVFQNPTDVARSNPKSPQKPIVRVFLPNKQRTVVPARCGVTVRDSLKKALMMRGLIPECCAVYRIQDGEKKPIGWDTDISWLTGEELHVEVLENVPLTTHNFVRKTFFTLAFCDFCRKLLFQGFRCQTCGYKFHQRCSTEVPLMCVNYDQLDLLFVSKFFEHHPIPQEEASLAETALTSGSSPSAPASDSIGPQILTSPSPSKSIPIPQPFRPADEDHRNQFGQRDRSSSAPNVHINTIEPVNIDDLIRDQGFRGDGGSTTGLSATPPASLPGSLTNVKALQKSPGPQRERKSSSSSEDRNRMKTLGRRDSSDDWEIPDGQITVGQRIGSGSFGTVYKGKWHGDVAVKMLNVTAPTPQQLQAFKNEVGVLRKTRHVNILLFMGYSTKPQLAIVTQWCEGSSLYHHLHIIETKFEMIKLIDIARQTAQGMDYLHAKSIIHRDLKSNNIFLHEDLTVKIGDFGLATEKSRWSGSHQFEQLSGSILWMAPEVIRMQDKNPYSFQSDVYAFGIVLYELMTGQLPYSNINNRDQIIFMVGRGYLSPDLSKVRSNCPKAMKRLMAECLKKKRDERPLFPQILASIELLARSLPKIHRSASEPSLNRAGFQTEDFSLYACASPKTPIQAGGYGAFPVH

## CCCS(=O)(=O)Nc1ccc(F)c(C(=O)c2c[nH]c3ncc(-c4ccc(Cl)cc4)cc23)c1F [PLX4032]
[1]
  patients with regression of melanomas: 80 % of patients

## Biotin-LCLRPVGGGRRRQQQQQQRRR
[2]
  cell apoptosis: no detectable effect

## Biotin-RRRRRRRRHKLVRSPAPCKFFTSAGGLCLRPVGAESRGRPVSGPFG (cysteine pairing not given here)
[3]
  degradation of the X-protein (Western blot, nuclear fraction): complete degradation of the X-protein

## Biotin-RRRRRRRRHKLVRSPAPCKFFTSAGGLNVTAPTPQQLQAFKNEVGVLRK [B-Raf targeting peptide]
[4]
  tumour cell death / apoptosis: killed the melanoma cells
[4]; [9]
  tumour cell death / apoptosis: led to tumour cell death
[5]
  tumour cell death / apoptosis: killed the melanoma cells
[5]; [9]
  tumour cell death / apoptosis: led to tumour cell death

## Biotin-RRRRRRRRLCLRPVGAESRGRPVSGPFGGCRHKLVRSPAPCKFFTSA (cysteine pairing not given here)
[3]
  degradation of the X-protein (Western blot, nuclear fraction): near complete degradation of the X-protein, with slight preference for the full length protein

## FITC-Acp-FGPLSSPAFSVPADHGAHLS ({FITC-Acp}-FGPLSSPAFSVPADHGAHLS; reading uncertain; also: printed as FITC-Acp-FGPLSSPAFSVPADHGAHLS) [Peptide 34-53]
[6]
  uptake by HepG2 cells (cell permeability): not cell-permeable

## FITC-Acp-MAARLCCQLDPARDVLCLRP [Peptide 1-20]
[6]; listed as aa 1-20
  uptake by HepG2 cells (cell permeability): cell-permeable; also recorded: readily taken up by the cells
[6]
  intracellular distribution (confocal slicing): taken up into the cell cytoplasm, as well as into the nucleus

## FITC-Acp-RRRRRRRRLCLRPVGAESRGRPVSGPFGGMLAPYIPM
[3]
  degradation of the X-protein (Western blot, nuclear fraction): near complete degradation of the X-protein

## FITC-Acp-RRRRRRRRMLAPYIPMGGLCLRPVGAESRGRPVSGPFG
[3]
  degradation of the X-protein (Western blot, nuclear fraction): complete degradation of the X-protein

## FITC-Acp-VGAESRGRPVSGPFGPLSSP ({FITC-Acp}-VGAESRGRPVSGPFGPLSSP; reading uncertain; also: printed as FITC-Acp-VGAESRGRPVSGPFGPLSSP) [Peptide 21-40]
[7]
  binding to peptide 1-50 (fluorescence): failed to appreciably bind peptide 1-50
[6]
  uptake by HepG2 cells (cell permeability): not cell-permeable

## FITC-LCLRP ({FITC}-LCLRP) [Peptide 16-20]
[6]; listed as aa 16-20
  uptake by HepG2 cells (cell permeability): cell-permeable; also recorded: taken up into the cells

## FITC-LCLRPVGAE ({FITC}-LCLRPVGAE) [Peptide 16-24]
[7]
  binding to peptide 1-50 (fluorescence): could not match the strong binding shown by the parental peptide 16-35
[6]; listed as aa 16-24
  uptake by HepG2 cells (cell permeability): cell-permeable, being taken up by cells at a level equivalent to that of the parental peptide aa 16-35

## FITC-LCLRPVGAESR ({FITC}-LCLRPVGAESR) [Peptide 16-26]
[7]
  binding to peptide 1-50 (fluorescence): could not match the strong binding shown by the parental peptide 16-35
[6]; listed as aa 16-26
  uptake by HepG2 cells (cell permeability): cell-permeable, being taken up by cells at a level equivalent to that of the parental peptide aa 16-35

## LCLRPVGAESRGRPV [Peptide 16-30]
[7]
  binding to peptide 1-50 (fluorescence): binds to the X-protein N-terminal peptide 1-50; also recorded: bound peptide 1-50 even more strongly than peptide 16-35

## LCLRPVGGYDRREY (Biotin-LCLRPVGGYDRREY) [biotinylated LCLRPVG fused via glycine linker to β7 integrin hexapeptide YDRREY]
[8]
  uptake of biotinylated fusion peptide into TK-1 cells: uniformly taken up in similar amounts by all cells

## MAARLCCQ (cysteine pairing not given here; also: fluorescein label, position not given here) [Peptide 1-8]
[6]
  uptake by HepG2 cells (cell permeability): cell-permeable

## MAARLCCQLDPARDV [Peptide 1-15]
[6]; listed as aa 1-15
  uptake by HepG2 cells (cell permeability): cell-permeable; also recorded: taken up into the cells
[6]
  intracellular distribution (confocal slicing): taken up into the cytoplasm and nucleus

## R9YDRREY (RRRRRRRRRYDRREY; not fully specified (N-terminus); also: biotin, position not given here) [Peptide R9YDRREY, biotinylated YDRREY peptide fused to an R9 carrier peptide, reference compound]
[8]
  uptake of biotinylated fusion peptide into TK-1 cells: entered all the cells
